Measurements published in patent US6180385A (priority 1996, dated 2001).

Columns and labels:
[1] = system: L proteinase; conditions: cited from earlier work
[2] = target: T1, Lb proteinase (Foot-and-mouth disease virus serotype O, UniProt P03305); format: biochemical, FMDV
[3] = target: T1, Lb proteinase

T1 sequence (P03305 29-201 limits assumed): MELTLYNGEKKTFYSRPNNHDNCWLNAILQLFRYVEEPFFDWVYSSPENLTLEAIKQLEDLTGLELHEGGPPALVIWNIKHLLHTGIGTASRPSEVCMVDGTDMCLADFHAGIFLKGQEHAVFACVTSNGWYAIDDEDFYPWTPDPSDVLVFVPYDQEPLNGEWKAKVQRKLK

| Compound | cleavage of peptide in the absence of SDS (controls) [3] | peptide cleaved by Lb (qualitative) [3] | other results |
| --- | --- | --- | --- |
| CC(C)CC(NC(=O)C1OC1C(=O)O)C(=O)NCCCCN=C(N)N (stereo not shown) [Peptide E64, E64] |  |  | effect on the L proteinase [1]: inhibition |
| CCCCCCCCCCCCOS(=O)(=O)O [SDS] |  |  | cleavage of peptide LVP4-1 by Lb proteinase in the presence of inhibitor [2]: No cleavage; inhibition of cleavage of peptides P89, p220-4 and p220-6 by Lb proteinase [2]: complete inhibition |
| Ac-T*R*P I I T T A G P S D M Y V H-NH2 [Peptide P89] | efficient cleavage | cleaved |  |
| G R T T L S T R*G P P R G G P G [p220-4] | efficient cleavage | cleaved |  |
| T P S F A N L G*R T T L S T R G [p220-6] | efficient cleavage | cleaved | FMDV Lb cleavage site on the peptide (* indicates cleavage site) [3]: G*R |
